Molecular target: T1, KCC4 (Homo sapiens, UniProt Q9Y666)
T1 construct: expressed in transfected cells; host or cells: HEK-293
T1 sequence (Q9Y666 1-1083): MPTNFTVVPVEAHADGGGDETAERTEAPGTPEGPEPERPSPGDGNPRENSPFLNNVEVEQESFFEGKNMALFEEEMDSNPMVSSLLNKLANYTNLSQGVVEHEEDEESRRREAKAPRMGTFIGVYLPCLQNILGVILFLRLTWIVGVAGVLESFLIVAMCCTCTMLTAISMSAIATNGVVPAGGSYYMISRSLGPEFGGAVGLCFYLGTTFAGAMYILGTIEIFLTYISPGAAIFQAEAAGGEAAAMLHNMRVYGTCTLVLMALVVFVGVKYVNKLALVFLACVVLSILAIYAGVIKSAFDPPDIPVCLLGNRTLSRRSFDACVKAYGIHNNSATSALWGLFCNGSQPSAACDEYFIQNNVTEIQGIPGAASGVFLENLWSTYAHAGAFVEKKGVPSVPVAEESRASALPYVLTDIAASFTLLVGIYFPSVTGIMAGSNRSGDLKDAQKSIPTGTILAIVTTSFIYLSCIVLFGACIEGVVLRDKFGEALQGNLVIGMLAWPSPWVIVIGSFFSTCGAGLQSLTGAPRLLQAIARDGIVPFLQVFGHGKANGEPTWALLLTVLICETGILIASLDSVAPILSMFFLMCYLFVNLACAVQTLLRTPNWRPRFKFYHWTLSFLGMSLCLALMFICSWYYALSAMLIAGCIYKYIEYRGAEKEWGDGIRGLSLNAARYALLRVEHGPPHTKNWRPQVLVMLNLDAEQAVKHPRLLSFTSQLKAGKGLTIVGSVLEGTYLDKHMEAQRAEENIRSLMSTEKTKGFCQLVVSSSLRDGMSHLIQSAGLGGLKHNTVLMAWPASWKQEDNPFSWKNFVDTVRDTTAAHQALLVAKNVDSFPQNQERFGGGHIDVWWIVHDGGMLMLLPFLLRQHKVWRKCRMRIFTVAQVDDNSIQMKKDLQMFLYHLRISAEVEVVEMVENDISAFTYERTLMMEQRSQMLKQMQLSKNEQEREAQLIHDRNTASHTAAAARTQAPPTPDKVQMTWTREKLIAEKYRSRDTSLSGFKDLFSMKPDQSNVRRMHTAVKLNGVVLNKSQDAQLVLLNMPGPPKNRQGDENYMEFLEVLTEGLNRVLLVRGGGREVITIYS
Assay: Tl+ assay, HEK-293 cells expressing KCC4
Assay type: cell-based
Settings: read-out: concentration at which effects on KCC4 were seen (EC50 chart FIG. 1G)
Method: FLIPR TI Flux assay. HEK-293 cells were washed with HBSS, and then incubated with loading buffer containing TI sensitive fluorescent dye (https://www.moleculardevices.com), 20 μM bumetanide 20 μM ouabain and 2.5 mM probenecid for 1 h at room temperature (RT) under control conditions or with drugs in the dark using a FlexStation 3 microplate reader (Molecular Devices) and imaged […] for 30 min. Stimulus buffer was added containing 5 mM K^+/0.5 mM Tl^+ and cells were imaged every 1.5 over a 190 second time course The initial rate Tl^+ uptake (Relative Fluorescence Units (RFU) per second) was determined following addition of the stimulus buffer as outlined previously (Conway et at, 2017, supra) (Lee et at, 2022, supra).
Several studies have shown that the activity and plasma membrane accumulation of KCC2 is potentiated via phosphorylation of S940, a process mediated by the activity of protein kinase C and protein phosphatase 1 (Lee et al., 2011, supra; Lee et al., J Biol Chem 282, 29777-29784 (2007); Moore et al., Proc. Natl. Acad. Sci. U.S.A. 115, 10166-10171 (2018); Moore et al., Trends Neurosci. 40, 555-571 (2017); Silayeva et al., Proc. Natl. Acad. Sci. U.S.A. 112, 3523-3528 (2015)). […] Compared to KCC2, effects on KCC3, KCC4, and NKCC1 were only seen at concentrations more than 35-fold that of KCC2 (>100 μM) (FIG. 1G).

Structure (SMILES): C[C@@H]1CN(c2nc3c(c(Nc4ccc(C5CCCCC5)cc4)n2)COC3)CCO1 [Compound A, (R)—N-(4-cyclohexylphenyl)-2-(2-methylmorpholino)-5,7-dihydrofuro[3,4-d]pyrimidin-4-amine]
- EC50: > 100 µM

Source: patent US20250281497A1, “FUSED AMINO PYRIMIDINE COMPOUNDS FOR TREATMENT OF SEIZURE DISORDERS” (Ovid Therapeutics Inc., priority 2024, published 2025)
